We go through 1 substance from patent publication US20180289692A1, “TLR MODULATORS AND METHODS OF USE” (CELGENE CORPORATION, priority 2015, published 2018).

Oligonucleotides are written 5' to 3', each unit as a sugar letter and its base; * is a phosphorothioate linkage, no mark a phosphodiester; rarer units and linkages stand in square brackets, end groups in braces. Plain capitals give the bases only. d = 2'-deoxy (DNA)

For data set [1], the system named is human pDCs. The data set can be described thus: Surface ICOS-L and PD-L1 expression in CCR6+CD123+ human pDCs by FACS. The format is cell-based. Conditions: human pDCs, 24 hrs, FIG. 2B. How it is done:
To evaluate surface ICOS-L, PD-L1 expression in the CCR6+CD123+ pDC cell subsets, PBMCs were incubated on ice in the presence of Fc-Block (BD Pharmingen) for 20 minutes, washed, and incubated with antibodies specific for surface molecules or isotype-matched control mAbs. APC-labeled anti-human ICOS-L mAb were purchased from BioLegend, PECY-7-labeled anti-human CCR6 mAb, FITC-labeled anti-human PD-L1 mAb and PerCP-Cy5.5 labeled anti-human CD123 mAb were purchased from BD Biosciences. The stained cells were then subjected to FACS (FACSCanto, BD Biosciences) using FACSDiva software. FACS analysis was performed using FlowJo software. Single, viable cells in the CCR6+CD123+ pDC gates were analyzed. The flow cytometric results are expressed as the percentage and MFI of ICOSL-, or PD-L1-expressing cells in each gate.
pDCs were isolated and ICOS-L expression was analyzed as described in Example 2.

The test system of data set [2] is canonical NF-κB promoter reporter. The data set can be described thus: Canonical NF-κB promoter reporter construct in RAW264.7 macrophage cells (FIG. 10). It counts as cell-based, mouse. Conditions: 24 hrs. The protocol:
Mouse RAW264.7 macrophage cells containing a reporter construct driven by a canonical NF-κB promoter were plated in 96-well plates at 50,000 cells/well. […] The supernatant was harvested and tested for optical density.

In data set [3] the target is T1, TLR8 (Homo sapiens, UniProt Q9NR97).
T1 construct: host or cells: HEK Blue TLR8 reporter cells (engineered HEK293, NF-κB inducible SEAP)
T1 sequence (Q9NR97 27-1041): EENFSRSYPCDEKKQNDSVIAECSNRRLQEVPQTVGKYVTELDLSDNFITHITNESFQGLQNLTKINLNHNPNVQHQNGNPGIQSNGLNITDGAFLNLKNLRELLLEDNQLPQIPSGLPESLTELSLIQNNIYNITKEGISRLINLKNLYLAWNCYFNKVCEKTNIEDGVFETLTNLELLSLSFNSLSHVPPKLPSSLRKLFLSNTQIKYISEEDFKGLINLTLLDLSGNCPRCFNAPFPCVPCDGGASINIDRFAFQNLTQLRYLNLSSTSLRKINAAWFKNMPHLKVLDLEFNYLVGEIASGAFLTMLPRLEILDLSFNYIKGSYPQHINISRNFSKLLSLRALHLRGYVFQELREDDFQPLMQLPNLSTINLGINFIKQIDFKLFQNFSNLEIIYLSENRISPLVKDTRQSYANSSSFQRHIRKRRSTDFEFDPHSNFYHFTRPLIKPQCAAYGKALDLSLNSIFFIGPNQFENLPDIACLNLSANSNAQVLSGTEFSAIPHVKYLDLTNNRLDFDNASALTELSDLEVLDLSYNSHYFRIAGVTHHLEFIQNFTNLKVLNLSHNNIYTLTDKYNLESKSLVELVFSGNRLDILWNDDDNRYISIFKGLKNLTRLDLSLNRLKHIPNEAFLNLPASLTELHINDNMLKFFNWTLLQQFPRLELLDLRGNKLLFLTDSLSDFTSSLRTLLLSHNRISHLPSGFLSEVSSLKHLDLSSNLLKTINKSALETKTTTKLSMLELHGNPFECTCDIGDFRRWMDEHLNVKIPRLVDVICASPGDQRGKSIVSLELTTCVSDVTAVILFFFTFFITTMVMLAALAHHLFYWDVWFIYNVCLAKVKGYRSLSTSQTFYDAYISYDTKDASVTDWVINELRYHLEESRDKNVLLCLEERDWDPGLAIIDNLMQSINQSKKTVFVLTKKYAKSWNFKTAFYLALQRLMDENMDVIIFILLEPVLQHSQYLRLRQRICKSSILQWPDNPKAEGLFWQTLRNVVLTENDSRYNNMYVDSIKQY
The data set can be described thus: TLR8 activation in HEK Blue TLR8 reporter cell line after lipo-transfection. It counts as cell-based. Conditions: HEK Blue TLR8 reporter cells, Lipofectamine transfection, FIG. 24. How it is done: Briefly, the reporter cells were engineered HEK293 cells that express a TLR8 gene and are specially designed for monitoring activity of NF-kβ inducible SEAP (secreted embryonic alkaline phosphatase). Reporter cells were seeded at a density of around 60000/well in 96 wells plates for 72 hrs. Growth medium was removed and Lipofectamine™ (Life Technologies, Foster City, Calif.) 2000/oligonucleotide complex and agonist was added and incubated for 6 hrs. The complex was removed and Detection Medium was added for 16 hrs of incubation. Optical density of SEAP was measured by spectrophotometer at […]. […] See also, Table 7.

Data set [4] concerns purified human pDCs. The data set can be described thus: pDC differentiation, differentiation markers CD86, CD83, CCR6, CCR7 by flow cytometry. It counts as cell-based. Also noted: key: (↑) indicates a weak but detectable activity; (↑↑) and (↑↑↑) indicate different levels of moderate activities; (↑↑) and (↑↑↑) indicate different levels of moderate activities; (↑↑↑↑) indicates a strong activity; (−) indicates no detectable activity. Conditions: relative strength, Table 6.

In data set [5] the test system is ulcerative colitis patients. Conditions: clinical studies, subset of UC patients; cited from earlier work.

For the substance “ODN150: 5′-G*G*A*ACAGTTCGTCCAT*G*G*C-3′, PO except * = PS; antisense to p65 of NF-kB mRNA; tested clinically for ulcerative colitis (DNA dG*dG*dA*dAdCdAdGdTdTdCdGdTdCdCdAdT*dG*dG*dC)”, the PD-L1 protein induction result in data set [1] is “can induce”. Besides, in data set [2] (0.1-100 μM), the “activation of the NF-κB construct” value is “Moderate activation”. For the same substance, the “ODN concentration at which activation of the NF-κB construct was observed” value in data set [2] worked out at 100 µM. Further, the TLR8 activation result in data set [3] is recorded as “substantially induced”. In data set [4], the pDC differentiation entry is given as “↑”. The “clinical effect in ulcerative colitis” value in data set [5] is “some moderate beneficial effects”.
